Measurements taken from patent US20110082114A1, “Methods of Treating Aneurysmal Dilatation, Blood Vessel Wall Weakness and Specifically Abdominal Aortic and Thoracic Aneurysm Using Matrix Metalloprotease-2 Inhibitors” (SYMPHONY EVOLUTION, INC., priority 2009, published 2011).

Target: T1, mADAM-10 or hADAM-10 (UniProt O14672)
T1 sequence (O14672 1-748): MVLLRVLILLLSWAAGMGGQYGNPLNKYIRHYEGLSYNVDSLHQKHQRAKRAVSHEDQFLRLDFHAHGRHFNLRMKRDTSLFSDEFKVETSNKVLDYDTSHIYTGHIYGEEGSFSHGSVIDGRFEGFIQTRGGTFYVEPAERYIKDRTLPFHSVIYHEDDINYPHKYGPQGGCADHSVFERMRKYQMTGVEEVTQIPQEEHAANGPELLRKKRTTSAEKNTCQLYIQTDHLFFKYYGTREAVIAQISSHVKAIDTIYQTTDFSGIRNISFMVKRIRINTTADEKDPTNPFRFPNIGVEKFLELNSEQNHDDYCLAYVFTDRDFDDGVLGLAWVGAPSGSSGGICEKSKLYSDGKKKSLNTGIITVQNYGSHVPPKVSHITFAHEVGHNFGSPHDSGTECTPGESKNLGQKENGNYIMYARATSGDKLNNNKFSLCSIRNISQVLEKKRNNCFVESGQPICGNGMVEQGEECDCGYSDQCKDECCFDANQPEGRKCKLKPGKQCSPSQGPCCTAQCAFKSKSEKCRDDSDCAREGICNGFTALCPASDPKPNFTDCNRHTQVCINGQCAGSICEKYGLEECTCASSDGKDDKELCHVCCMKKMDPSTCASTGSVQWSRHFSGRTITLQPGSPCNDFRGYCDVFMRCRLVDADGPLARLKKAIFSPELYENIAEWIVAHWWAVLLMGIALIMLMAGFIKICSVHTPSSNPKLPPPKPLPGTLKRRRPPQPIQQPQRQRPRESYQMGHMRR
Assay: ADAM-10 enzyme assay (fluorogenic peptide cleavage);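 also: fluorescence from cleavage of a quenched 10-residue DABCYL/EDANS peptide by 5 nM enzyme in HEPES pH 8.0 buffer, 16 hr at room temperature, compounds serially diluted 100 µM to 0.5 nM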
Format: biochemical
Description: mADAM-10 or hADAM-10 activity was measured as the ability to cleave a 10-residue peptide (DABCYL-Leu-Leu-Ala-Gln-Lys-*-Leu-Arg-Ser-Ser-Arg-EDANS). […] Enzyme was diluted to a final active concentration of 5 nM in Buffer A (50 mM HEPES 8.0, 100 mM NaCl, 1 mM CaCl2 and 0.01% NP-40). Serial dilutions for compounds were performed ranging from 100 μM to 0.5 nM using a Beckman Biomek 2000 in polypropylene plates (Greiner). […] This reaction was incubated for 16 hr at RT and fluorescence was read using identical conditions.

## COCCOC(=O)N1CCN(S(=O)(=O)c2ccc(Oc3ccc(F)cc3)cc2)[C@@H](C(=O)NO)C1 [Entry 1]
  IC50: < 50 nM

## O=C(NO)[C@H]1CN(C(=O)N2CCOCC2)CCN1S(=O)(=O)c1ccc(Oc2ccc(F)cc2)cc1 [Entry 2]
  IC50: < 50 nM

## COCCOC(=O)N1CCN(S(=O)(=O)c2ccc(Oc3ccc(F)cc3)c(F)c2)[C@@H](C(=O)NO)C1 [Entry 3]
  IC50: < 50 nM

## COCCOC(=O)N1CCN(S(=O)(=O)c2ccc(Oc3ccc(Cl)cc3)c(F)c2)[C@@H](C(=O)NO)C1 [Entry 4]
  IC50: < 50 nM

## COCCOC(=O)N1CCN(S(=O)(=O)c2ccc(Oc3ccc(C#N)cc3)c(F)c2)[C@@H](C(=O)NO)C1 [Entry 5]
  IC50: < 50 nM

## O=C(NO)[C@H]1CN(C(=O)N2CCOCC2)CCN1S(=O)(=O)c1ccc(Oc2ccc(Cl)cc2)c(F)c1 [Entry 6]
  IC50: < 50 nM

## N#Cc1ccc(Oc2ccc(S(=O)(=O)N3CCN(C(=O)N4CCOCC4)C[C@@H]3C(=O)NO)cc2F)cc1 [Entry 7]
  IC50: < 50 nM

## O=C(NO)[C@H]1CN(C(=O)N2CCOCC2)CCN1S(=O)(=O)c1ccc(Oc2ccc(F)cc2)c(F)c1 [Entry 8]
  IC50: < 50 nM

## CC(C)(C)OC(=O)N1CCN(S(=O)(=O)c2cc(F)c(Oc3ccc(F)cc3)c(F)c2)[C@@H](C(=O)NO)C1 [Entry 9]
  IC50: < 50 nM

## COCCOC(=O)N1CCN(S(=O)(=O)c2cc(F)c(Oc3ccc(F)cc3)c(F)c2)[C@@H](C(=O)NO)C1 [Entry 10]
  IC50: < 50 nM

## O=C(NO)[C@H]1CNCCN1S(=O)(=O)c1cc(F)c(Oc2ccc(F)cc2)c(F)c1 [Entry 11]
  IC50: 50 to 1000 nM

## O=C(NO)[C@H]1CN(C(=O)N2CCOCC2)CCN1S(=O)(=O)c1cc(F)c(Oc2ccc(F)cc2)c(F)c1 [Entry 12]
  IC50: < 50 nM

## CCOC(=O)N1CCN(S(=O)(=O)c2cc(F)c(Oc3ccc(F)cc3)c(F)c2)[C@@H](C(=O)NO)C1 [Entry 13]
  IC50: < 50 nM

## CN1CCN(S(=O)(=O)c2cc(F)c(Oc3ccc(F)cc3)c(F)c2)[C@@H](C(=O)NO)C1 [Entry 14]
  IC50: 50 to 1000 nM

## CN1CCN(C(=O)N2CCN(S(=O)(=O)c3cc(F)c(Oc4ccc(Cl)cc4)c(F)c3)[C@@H](C(=O)NO)C2)CC1 [Entry 16]
  IC50: < 50 nM

## O=C(NO)[C@H]1CN(C(=O)NCCN2CCCC2)CCN1S(=O)(=O)c1cc(F)c(Oc2ccc(Cl)cc2)c(F)c1 [Entry 17]
  IC50: < 50 nM

## O=C(NO)[C@H]1CN(C(=O)OCCN2CCCC2)CCN1S(=O)(=O)c1cc(F)c(Oc2ccc(Cl)cc2)c(F)c1 [Entry 18]
  IC50: < 50 nM

## CNC(=O)CN1CCN(S(=O)(=O)c2cc(F)c(Oc3ccc(Cl)cc3)c(F)c2)[C@@H](C(=O)NO)C1 [Entry 19]
  IC50: < 50 nM

## CN(C)C(=O)CN1CCN(S(=O)(=O)c2cc(F)c(Oc3ccc(Cl)cc3)c(F)c2)[C@@H](C(=O)NO)C1 [Entry 20]
  IC50: < 50 nM

## O=C(NO)[C@H]1CN(CC(=O)N2CCCC2)CCN1S(=O)(=O)c1cc(F)c(Oc2ccc(Cl)cc2)c(F)c1 [Entry 21]
  IC50: < 50 nM

## CN1CCC(OC(=O)N2CCN(S(=O)(=O)c3cc(F)c(Oc4ccc(Cl)cc4)c(F)c3)[C@@H](C(=O)NO)C2)CC1 [Entry 22]
  IC50: < 50 nM

## CCOC(=O)N1CCN(CC(=O)N2CCN(S(=O)(=O)c3cc(F)c(Oc4ccc(Cl)cc4)c(F)c3)[C@@H](C(=O)NO)C2)CC1 [Entry 23]
  IC50: < 50 nM

## CN1CCN(CC(=O)N2CCN(S(=O)(=O)c3cc(F)c(Oc4ccc(Cl)cc4)c(F)c3)[C@@H](C(=O)NO)C2)CC1 [Entry 24]
  IC50: < 50 nM

## O=C(NO)[C@H]1CN(C(=O)CN2CCOCC2)CCN1S(=O)(=O)c1cc(F)c(Oc2ccc(Cl)cc2)c(F)c1 [Entry 25]
  IC50: < 50 nM

## O=C(NO)[C@H]1CN(C(=O)CN2CCCCC2)CCN1S(=O)(=O)c1cc(F)c(Oc2ccc(Cl)cc2)c(F)c1 [Entry 26]
  IC50: < 50 nM

## O=C(NO)[C@H]1CN(C(=O)OCCN2CCCCC2)CCN1S(=O)(=O)c1cc(F)c(Oc2ccc(Cl)cc2)c(F)c1 [Entry 27]
  IC50: < 50 nM

## CS(=O)(=O)N1CCN(S(=O)(=O)c2cc(F)c(Oc3ccc(Cl)cc3)c(F)c2)[C@@H](C(=O)NO)C1 [Entry 28]
  IC50: < 50 nM

## COCCN1CCN(S(=O)(=O)c2cc(F)c(Oc3ccc(Cl)cc3)c(F)c2)[C@@H](C(=O)NO)C1 [Entry 29]
  IC50: < 50 nM

## O=C(NO)[C@H]1CN(C(=O)N2CCOCC2)CCN1S(=O)(=O)c1cc(F)c(Oc2ccc(Cl)cc2)c(F)c1 [Entry 30]
  IC50: < 50 nM

## O=C(NO)[C@H]1CN(C(=O)C(=O)N2CCOCC2)CCN1S(=O)(=O)c1cc(F)c(Oc2ccc(Cl)cc2)c(F)c1 [Entry 31]
  IC50: < 50 nM

## O=C(NO)[C@H]1CN(C(=O)OCc2ccccc2)CCN1S(=O)(=O)c1cc(F)c(Oc2ccc(Cl)cc2)c(F)c1 [Entry 32]
  IC50: < 50 nM

## O=C(CCl)NC(=O)N1CCN(S(=O)(=O)c2cc(F)c(Oc3ccc(Cl)cc3)c(F)c2)[C@@H](C(=O)NO)C1 [Entry 33]
  IC50: < 50 nM

## O=C(NO)[C@H]1CN(S(=O)(=O)Cc2ccncc2)CCN1S(=O)(=O)c1cc(F)c(Oc2ccc(Cl)cc2)c(F)c1 [Entry 34]
  IC50: < 50 nM

## O=C(NO)[C@H]1CN(C(=O)C(=O)N2CCCCC2)CCN1S(=O)(=O)c1cc(F)c(Oc2ccc(Cl)cc2)c(F)c1 [Entry 35]
  IC50: < 50 nM

## CN(C)S(=O)(=O)N1CCN(S(=O)(=O)c2cc(F)c(Oc3ccc(Cl)cc3)c(F)c2)[C@@H](C(=O)NO)C1 [Entry 36]
  IC50: < 50 nM

## O=C(NO)[C@H]1CN(S(=O)(=O)NC(=O)N2CCCCC2)CCN1S(=O)(=O)c1cc(F)c(Oc2ccc(Cl)cc2)c(F)c1 [Entry 37]
  IC50: < 50 nM

## O=C(NO)[C@H]1CN(S(=O)(=O)NC(=O)N2CCOCC2)CCN1S(=O)(=O)c1cc(F)c(Oc2ccc(Cl)cc2)c(F)c1 [Entry 38]
  IC50: < 50 nM

## CN1CCN(C(=O)NS(=O)(=O)N2CCN(S(=O)(=O)c3cc(F)c(Oc4ccc(Cl)cc4)c(F)c3)[C@@H](C(=O)NO)C2)CC1 [Entry 39]
  IC50: < 50 nM

## COCCOC(=O)N1CCN(S(=O)(=O)c2cc(F)c(Oc3ccccc3)c(F)c2)[C@@H](C(=O)NO)C1 [Entry 40]
  IC50: < 50 nM

## O=C(NO)[C@H]1CN(S(=O)(=O)c2cc(F)c(O)c(F)c2)CCN1S(=O)(=O)c1cc(F)c(Oc2ccc(Cl)cc2)c(F)c1 [Entry 41]
  IC50: < 50 nM

## O=C(NO)[C@H]1CN(C(=O)c2ccncc2)CCN1S(=O)(=O)c1cc(F)c(Oc2ccc(Cl)cc2)c(F)c1 [Entry 42]
  IC50: < 50 nM

## CCCCCCC(=O)N1CCN(S(=O)(=O)c2cc(F)c(Oc3ccc(Cl)cc3)c(F)c2)[C@@H](C(=O)NO)C1 [Entry 43]
  IC50: < 50 nM

## CCCC(CCC)C(=O)N1CCN(S(=O)(=O)c2cc(F)c(Oc3ccc(Cl)cc3)c(F)c2)[C@@H](C(=O)NO)C1 [Entry 44]
  IC50: < 50 nM

## O=C(NO)[C@H]1CN(S(=O)(=O)c2cccnc2O)CCN1S(=O)(=O)c1cc(F)c(Oc2ccc(Cl)cc2)c(F)c1 [Entry 45]
  IC50: < 50 nM

## O=C(CN1CCOCC1)NC(=O)N1CCN(S(=O)(=O)c2cc(F)c(Oc3ccc(Cl)cc3)c(F)c2)[C@@H](C(=O)NO)C1 [Entry 46]
  IC50: < 50 nM

## O=C(NO)[C@H]1CN(C(=O)Cc2cccnc2)CCN1S(=O)(=O)c1cc(F)c(Oc2ccc(Cl)cc2)c(F)c1 [Entry 47]
  IC50: < 50 nM

## O=C(NO)[C@H]1CN(S(=O)(=O)c2cccc3cnccc23)CCN1S(=O)(=O)c1cc(F)c(Oc2ccc(Cl)cc2)c(F)c1 [Entry 48]
  IC50: < 50 nM

## CN(C)c1ccc2c(S(=O)(=O)N3CCN(S(=O)(=O)c4cc(F)c(Oc5ccc(Cl)cc5)c(F)c4)[C@@H](C(=O)NO)C3)cccc2c1 [Entry 49]
  IC50: 1000 to 20000 nM

## CN(C)c1ccc2ccc(S(=O)(=O)N3CCN(S(=O)(=O)c4cc(F)c(Oc5ccc(Cl)cc5)c(F)c4)[C@@H](C(=O)NO)C3)cc2c1 [Entry 50]
  IC50: 1000 to 20000 nM

## O=C(NO)[C@H]1CN(C(=O)c2ccc(-c3ccccc3)cc2)CCN1S(=O)(=O)c1cc(F)c(Oc2ccc(Cl)cc2)c(F)c1 [Entry 51]
  IC50: 50 to 1000 nM

## O=C(NO)[C@H]1CN(C(=O)Cc2ccncc2)CCN1S(=O)(=O)c1cc(F)c(Oc2ccc(Cl)cc2)c(F)c1 [Entry 52]
  IC50: < 50 nM

## O=C(NO)[C@H]1CN(S(=O)(=O)CCN2CCCCC2)CCN1S(=O)(=O)c1cc(F)c(Oc2ccc(Cl)cc2)c(F)c1 [Entry 53]
  IC50: < 50 nM

## CN(C)CCS(=O)(=O)N1CCN(S(=O)(=O)c2cc(F)c(Oc3ccc(Cl)cc3)c(F)c2)[C@@H](C(=O)NO)C1 [Entry 54]
  IC50: < 50 nM

## CN1CCN(CCS(=O)(=O)N2CCN(S(=O)(=O)c3cc(F)c(Oc4ccc(Cl)cc4)c(F)c3)[C@@H](C(=O)NO)C2)CC1 [Entry 55]
  IC50: < 50 nM

## CCOC(=O)N1CCN(CCS(=O)(=O)N2CCN(S(=O)(=O)c3cc(F)c(Oc4ccc(Cl)cc4)c(F)c3)[C@@H](C(=O)NO)C2)CC1 [Entry 56]
  IC50: < 50 nM

## O=C(NO)[C@H]1CN(S(=O)(=O)CCN2CCOCC2)CCN1S(=O)(=O)c1cc(F)c(Oc2ccc(Cl)cc2)c(F)c1 [Entry 57]
  IC50: 50 to 1000 nM

## O=C(NO)[C@H]1CN(C(=O)N2CCOCC2)CCN1S(=O)(=O)c1ccc(-c2cccc(F)c2)nc1 [Entry 58]
  IC50: < 50 nM

## O=C(NO)[C@H]1CN(C(=O)c2cccnc2)CCN1S(=O)(=O)c1cc(F)c(Oc2ccc(Cl)cc2)c(F)c1 [Entry 59]
  IC50: < 50 nM

## CN(C)c1cccc2c(S(=O)(=O)N3CCN(S(=O)(=O)c4cc(F)c(Oc5ccc(Cl)cc5)c(F)c4)[C@@H](C(=O)NO)C3)cccc12 [Entry 60]
  IC50: 50 to 1000 nM
